Test results: patent US11629143B2, “HipK4 inhibitors and uses thereof” (Vibliome Therapeutics, LLC, priority 2020, dated 2023)

Legend:
Assay in all cases: Kinase panel (mobility shift)
Format in all cases: biochemical
[1] = target: T1, DDR2 (Homo sapiens, UniProt Q16832)
T1 sequence (Q16832 22-855): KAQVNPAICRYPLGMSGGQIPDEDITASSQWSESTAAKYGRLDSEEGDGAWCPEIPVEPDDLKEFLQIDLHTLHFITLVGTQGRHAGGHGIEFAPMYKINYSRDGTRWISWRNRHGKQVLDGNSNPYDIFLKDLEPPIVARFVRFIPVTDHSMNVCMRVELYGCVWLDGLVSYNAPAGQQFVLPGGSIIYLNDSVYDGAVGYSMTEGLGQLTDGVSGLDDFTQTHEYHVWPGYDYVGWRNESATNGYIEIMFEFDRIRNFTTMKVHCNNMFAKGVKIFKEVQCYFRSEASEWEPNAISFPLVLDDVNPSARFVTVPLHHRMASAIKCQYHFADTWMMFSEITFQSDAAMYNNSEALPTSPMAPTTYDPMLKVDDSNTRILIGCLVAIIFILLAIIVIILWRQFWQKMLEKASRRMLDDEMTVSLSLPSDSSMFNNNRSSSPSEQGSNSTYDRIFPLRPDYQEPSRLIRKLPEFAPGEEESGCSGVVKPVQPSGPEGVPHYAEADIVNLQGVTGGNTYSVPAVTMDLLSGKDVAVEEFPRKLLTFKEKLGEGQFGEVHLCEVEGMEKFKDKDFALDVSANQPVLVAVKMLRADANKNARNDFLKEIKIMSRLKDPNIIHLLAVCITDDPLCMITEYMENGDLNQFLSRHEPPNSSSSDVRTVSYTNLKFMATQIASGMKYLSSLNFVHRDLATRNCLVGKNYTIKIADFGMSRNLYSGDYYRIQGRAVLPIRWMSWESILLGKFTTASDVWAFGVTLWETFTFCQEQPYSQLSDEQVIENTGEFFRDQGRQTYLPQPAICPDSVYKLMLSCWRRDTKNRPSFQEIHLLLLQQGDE
How it was run: (§1)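 Tested at a single 5 um concentration within a 299-kinase panel, compounds were scored by electrophoretic mobility shift of a fluorescent substrate into product. Categories: A, 95% or greater; B, 90%-94%; C, 80%-89%.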

[2] = target: T2, EPH-B4 (Homo sapiens, UniProt P54760)
T2 sequence (P54760 16-987): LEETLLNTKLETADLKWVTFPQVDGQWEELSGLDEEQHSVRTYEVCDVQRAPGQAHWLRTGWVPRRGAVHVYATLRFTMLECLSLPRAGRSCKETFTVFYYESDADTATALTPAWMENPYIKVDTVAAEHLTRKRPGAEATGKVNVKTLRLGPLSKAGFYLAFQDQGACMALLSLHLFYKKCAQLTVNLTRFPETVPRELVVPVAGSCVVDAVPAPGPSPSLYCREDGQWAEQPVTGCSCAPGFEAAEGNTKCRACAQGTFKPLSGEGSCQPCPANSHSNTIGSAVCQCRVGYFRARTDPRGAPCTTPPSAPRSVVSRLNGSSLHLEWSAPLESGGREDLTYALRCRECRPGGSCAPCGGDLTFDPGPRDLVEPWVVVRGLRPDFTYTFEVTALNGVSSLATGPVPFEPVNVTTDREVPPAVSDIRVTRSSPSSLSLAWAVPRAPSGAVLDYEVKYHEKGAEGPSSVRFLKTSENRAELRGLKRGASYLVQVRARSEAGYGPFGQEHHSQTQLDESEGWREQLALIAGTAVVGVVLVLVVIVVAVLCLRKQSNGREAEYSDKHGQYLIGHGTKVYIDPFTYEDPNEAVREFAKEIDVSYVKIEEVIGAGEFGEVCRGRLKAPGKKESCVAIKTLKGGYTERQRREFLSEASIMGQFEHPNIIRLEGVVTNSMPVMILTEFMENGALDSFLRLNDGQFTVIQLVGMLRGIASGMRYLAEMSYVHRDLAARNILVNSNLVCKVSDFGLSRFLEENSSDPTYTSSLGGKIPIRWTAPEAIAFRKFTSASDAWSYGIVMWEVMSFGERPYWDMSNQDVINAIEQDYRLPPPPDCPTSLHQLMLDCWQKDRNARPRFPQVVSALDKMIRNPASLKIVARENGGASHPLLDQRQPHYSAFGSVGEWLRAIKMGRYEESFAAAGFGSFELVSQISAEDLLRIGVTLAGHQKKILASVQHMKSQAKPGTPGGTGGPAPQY
How it was run: as §1

[3] = target: T3, MER (Homo sapiens, UniProt Q12866)
T3 sequence (Q12866 21-999): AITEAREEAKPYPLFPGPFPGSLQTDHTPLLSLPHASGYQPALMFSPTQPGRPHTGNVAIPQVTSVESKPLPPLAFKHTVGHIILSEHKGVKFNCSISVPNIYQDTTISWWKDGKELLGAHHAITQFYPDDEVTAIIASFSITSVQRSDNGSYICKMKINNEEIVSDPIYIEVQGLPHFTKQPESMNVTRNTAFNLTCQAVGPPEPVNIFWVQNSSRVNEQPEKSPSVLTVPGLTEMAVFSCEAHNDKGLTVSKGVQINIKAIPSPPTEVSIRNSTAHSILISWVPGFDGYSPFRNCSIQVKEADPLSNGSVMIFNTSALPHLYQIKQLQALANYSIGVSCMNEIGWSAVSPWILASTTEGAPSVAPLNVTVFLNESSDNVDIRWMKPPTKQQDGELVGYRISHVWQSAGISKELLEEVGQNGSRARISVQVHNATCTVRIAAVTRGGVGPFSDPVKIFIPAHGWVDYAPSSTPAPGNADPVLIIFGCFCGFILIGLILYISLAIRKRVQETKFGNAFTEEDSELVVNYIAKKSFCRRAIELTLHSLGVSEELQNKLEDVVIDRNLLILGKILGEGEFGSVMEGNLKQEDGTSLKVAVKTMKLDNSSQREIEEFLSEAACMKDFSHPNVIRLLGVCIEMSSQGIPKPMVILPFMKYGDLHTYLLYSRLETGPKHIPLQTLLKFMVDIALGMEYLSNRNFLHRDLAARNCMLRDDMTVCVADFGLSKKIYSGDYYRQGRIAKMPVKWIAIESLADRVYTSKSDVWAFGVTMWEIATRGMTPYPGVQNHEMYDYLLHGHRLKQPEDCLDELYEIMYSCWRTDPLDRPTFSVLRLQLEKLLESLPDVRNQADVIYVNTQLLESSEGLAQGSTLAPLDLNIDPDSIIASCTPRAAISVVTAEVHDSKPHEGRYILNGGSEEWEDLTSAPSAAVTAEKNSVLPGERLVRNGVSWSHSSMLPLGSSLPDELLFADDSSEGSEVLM
How it was run: as §1

Structure (SMILES)	inhibition at 5 µM [1]	inhibition at 5 µM [2]	inhibition at 5 µM [3]
[2H]C([2H])([2H])NC(=O)c1cc(Oc2ccc(NC(=O)c3nc(SC)oc3-c3ccc(F)c(F)c3)cc2F)ccn1 [Compound 33]	80 to 89%	< 50%	< 50%
CNC(=O)c1cc(Oc2ccc(NC(=O)c3nc(SC)oc3-c3ccc(F)cc3F)cc2F)ccn1 [Compound 12]	80 to 89%	50 to 79%	80 to 89%
CSc1nc(C(=O)Nc2ccc(Oc3ccnc(C(=O)NC4CCN(C)CC4)c3)c(F)c2)c(-c2ccc(F)cc2)o1 [Compound 42]	50 to 79%	< 50%	< 50%
CSc1nc(C(=O)Nc2ccc(Oc3ccnc(N)c3Cl)c(F)c2)c(-c2ccc(F)cc2)o1 [Compound 1]	50 to 79%	< 50%	< 50%
CSc1nc(C(=O)Nc2ccc(Oc3ccnc(C(=O)NC4COC4)c3)c(F)c2)c(-c2ccc(F)s2)o1 [Compound 28]	< 50%	< 50%	< 50%
CNC(=O)c1ccc(Oc2ccc(NC(=O)c3nc(Cl)oc3-c3ccc(F)cc3)c(F)c2)cn1 [Compound 36]	< 50%	< 50%	< 50%
CSc1nc(C(=O)Nc2ccc(Oc3ccnc(C(=O)NC4CNC4)c3)c(F)c2)c(-c2ccc(F)cc2)o1 [Compound 29]	50 to 79%	< 50%	50 to 79%
CNC(=O)c1cc(Oc2ccc(NC(=O)c3nc(SC)oc3-c3ccc(F)c(F)c3)cc2)ccn1 [Compound 4]	80 to 89%	< 50%	50 to 79%
CNC(=O)c1cc(Oc2ccc(NC(=O)c3nc(SC)oc3-c3ccc(OC)cc3)cc2)ccn1 [Compound 7]	80 to 89%	< 50%	< 50%
[2H]C([2H])([2H])NC(=O)c1cc(Oc2ccc(NC(=O)c3nc(SC)oc3-c3ccc(F)s3)cc2F)ccn1 [Compound 35]	50 to 79%	< 50%	< 50%
